Source: patent US20080199480A1, “Methods for Identifying Risk of Type II Diabetes and Treatments Thereof” (SEQUENOM, INC., priority 2004, published 2008)

T1: EPHA3 (Homo sapiens, UniProt P29320)
T1 construct: human EPHA3 intracellular domain (amino acids 571-986) containing juxtamembrane, kinase and SAM regions; 6xHis; made in house; host or cells: E. coli (Rosetta DE cells)
T1 sequence (P29320 571-983 limits assumed): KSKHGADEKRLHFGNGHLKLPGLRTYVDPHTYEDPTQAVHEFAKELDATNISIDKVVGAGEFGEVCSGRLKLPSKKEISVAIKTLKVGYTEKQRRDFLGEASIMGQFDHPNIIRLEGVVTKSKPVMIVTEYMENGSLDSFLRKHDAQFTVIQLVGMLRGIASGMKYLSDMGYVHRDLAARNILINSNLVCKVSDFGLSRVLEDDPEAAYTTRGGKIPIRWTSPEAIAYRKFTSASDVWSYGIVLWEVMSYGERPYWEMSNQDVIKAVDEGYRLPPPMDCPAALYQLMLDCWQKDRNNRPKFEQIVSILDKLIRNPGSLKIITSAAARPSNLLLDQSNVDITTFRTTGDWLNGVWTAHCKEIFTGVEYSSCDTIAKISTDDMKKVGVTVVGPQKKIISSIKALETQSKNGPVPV

T2: EPHA3 on differentiated 3T3-L1 cells (mouse) (UniProt P29319)
T2 sequence (looked up): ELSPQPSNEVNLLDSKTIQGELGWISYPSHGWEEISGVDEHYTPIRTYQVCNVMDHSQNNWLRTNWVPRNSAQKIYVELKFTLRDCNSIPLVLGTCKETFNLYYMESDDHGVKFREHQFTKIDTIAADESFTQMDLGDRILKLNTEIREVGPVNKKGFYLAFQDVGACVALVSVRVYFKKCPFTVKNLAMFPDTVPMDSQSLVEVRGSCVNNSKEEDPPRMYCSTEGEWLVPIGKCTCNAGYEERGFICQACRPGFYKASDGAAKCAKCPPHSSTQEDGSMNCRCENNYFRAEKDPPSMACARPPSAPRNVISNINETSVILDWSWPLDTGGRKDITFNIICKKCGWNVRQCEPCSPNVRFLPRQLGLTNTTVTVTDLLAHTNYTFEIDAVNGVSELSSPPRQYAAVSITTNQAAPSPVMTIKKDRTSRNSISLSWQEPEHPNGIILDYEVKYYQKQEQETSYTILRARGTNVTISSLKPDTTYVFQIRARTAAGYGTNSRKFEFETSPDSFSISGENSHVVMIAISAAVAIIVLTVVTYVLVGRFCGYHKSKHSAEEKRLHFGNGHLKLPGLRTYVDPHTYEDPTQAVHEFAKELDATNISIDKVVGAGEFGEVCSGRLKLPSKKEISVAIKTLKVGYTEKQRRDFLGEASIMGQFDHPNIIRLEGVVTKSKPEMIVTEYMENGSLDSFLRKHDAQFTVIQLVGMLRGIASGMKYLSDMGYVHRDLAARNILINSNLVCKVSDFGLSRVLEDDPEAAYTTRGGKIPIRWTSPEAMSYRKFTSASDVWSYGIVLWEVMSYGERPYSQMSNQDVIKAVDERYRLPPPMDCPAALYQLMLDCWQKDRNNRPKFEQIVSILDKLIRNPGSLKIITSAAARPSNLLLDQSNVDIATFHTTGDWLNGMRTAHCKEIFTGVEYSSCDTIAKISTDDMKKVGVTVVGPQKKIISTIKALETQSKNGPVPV


Assays:
EPHA3 = target: T1, EPHA3; experiment: DELFIA EPHA3 kinase assay (phosphorylation of biotin-Src-peptide); format: biochemical; details: EPHA3 30 nM, biotin-Src-peptide 1 μM, ATP 30 μM, 3 hr incubation at 37° C., read-out: EPHA3 Potency IC50
Protocol: An EPHA3 enzyme construct comprised the human EPHA3 intracellular domain (amino acids 571-986) containing juxtamembrane, kinase and SAM regions. It was expressed in E. coli as a recombinant protein. 6×His and NusA expression tags were used in pET28a and pET44a vectors (Novagen), respectively. Expression was carried out in Rosetta DE cells with IPTG induction followed by recombinant protein purification on a Ni-column using imidazole elution buffer.
The ATP concentrations are selected near the Michaelis-Menten constant (KM) for each individual kinase. Dose-response experiments are performed at ten different inhibitor concentrations in a 384-well plate format. The data are fitted to a standard four-parameter equation listed below:
Y=Min+(Max−Min)/(1+XIC50)̂H
These parameters are obtained by nonlinear regression algorithm built into ActivityBase software (available from ID Business Solutions Ltd., of Guildford, Surrey, UK).
The DELFIA method is a solid-phase, non-homogeneous system that measures enzymatic activity by quantitating the phosphorylation of an immobilized substrate. The compound names are provided in the “Compositions Comprising Diabetes-Directed Molecules” section.
In this experiment, EPHA3 (30 nM) was incubated with biotinylated substrate, biotin-Src-peptide (1 μM)+ATP (30 μM) in an assay medium (10 mM HEPES pH 7.4, 2 mM MgCl2, 10 μM MnCl2, 1.0 mM DTT, 0.01% Pluronic F-127) in the presence of test compounds. After 3 hr incubation at 37° C., the reaction was stopped (5 mM EDTA) and the substrate phosphorylation was quantified in DELFIA assay using Eu-labeled anti-phosphotyrosine antibody.

Differentiated 3T3-L1 [1] = experiment: Glucose uptake assay (insulin-mediated uptake of radioactive glucose); format: cell-based, mouse; details: 100 nM insulin for 10 minutes
Text: One of the many responses of adipocytes and muscle cells after exposure, to insulin is the transport of glucose intracellularly. This transport is mediated by GLUT4, an insulin-regulatable glucose transporter. Insulin binding to insulin receptors on the cell surface results in autophosphorylation and activation of the intrinsic tyrosine kinase activity of the insulin receptor. Phosphorylated tyrosine residues on the insulin receptor and its endogenous targets activate several intracellular signaling pathways that eventually lead to the translocation of GLUT4 from intracellular stores to the extracellular membrane. Cells were plated in 6-well dishes, and grown to confluency. Cells were then differentiated with DMEM plus 10% fetal calf serum (FCS), 10 ug/mL insulin, 390 ng/mL dexamethasone and 112 ug/mL isobutylmethylxanthine for 2 days. After 2 days of differentiation, media was changed to maintenance media DMEM plus 10% FCS and 5 ug/mL insulin. Media was changed every 2 days thereafter. Cells were assayed for insulin-mediated glucose uptake 10 days after differentiation. On the day of the assay, cells were washed once with PBS, and serum starved by adding 2 mL of DMEM plus 2 mg/mL BSA for 3 hours. During serum starvation, recombinant rat ephrin-A5/Fc chimeric ligand was preclustered. […] Lysates were read in a Wallac 1450 Microbeta Liquid Scintillation and Luminescence Counter.

[2] = test system: resistin mRNA in differentiated 3T3-L1 cells; experiment: Quantitative assessment of mResistin levels (mRNA, PCR); format: cell-based, mouse; details: 10 nM insulin for 2 hours
Protocol: Resistin is a secreted factor specifically expressed in white adipocyte. […] Elevated levels of resistin have been measured in genetically obese, and high fat fed obese mice. It is therefore thought that resistin contributes to peripheral tissue insulin unresponsiveness, one of the pathological hallmarks of diabetes.
3T3-L1 cells were differentiated for 3 days as previously described and maintained for three days prior to splitting. At day 5 post-differentiation, differentiated cells were plated in 10 cm dish at a cell density of 3×10^6 cells. Cells were then serum starved on day 7 after initiation of differentiation. On day 8, cells were treated with pre-clustered recombinant rat ephrin-A5/Fc chimera as described above for 10 min and treated with 10 nM insulin for 2 hours. Cells were harvested, mRNA extracted using magnetic DYNAL beads and reverse transcribed to cDNA using. Superscript First-Strand Synthesis as described by the manufacturer. The following primers: forward primer; 5′ GTCGCTTCCTGATGTCGGTCA 3′, and reverse primer, 5′ GGCCAGCCTGGACTATATGAG 3′, were used in 15 uL PCR reaction using 55 deg annealing temperature and 30 cycles of amplification.

Differentiated 3T3-L1 [3] = experiment: Triacylglycerol (TG) assay; format: cell-based, mouse; details: 100 nM insulin, 2 hours
Text: A direct metabolic consequence of glucose transport intracellularly is its incorporation into the fatty acid and glycerol moieties of triacylglycerol (TG). TGs are highly concentrated stores of metabolic energy, and are the major energy reservoir of cells. In mammals, the major site of accumulation of triacylglycerols is the cytoplasm of adipose cells. Adipocytes are specialized for the synthesis, and storage of TG, and for their mobilization into fuel molecules that are transported to other tissues through the bloodstream. It is likely that changes in the transport of glucose intracellularly can affect cytoplasmic stores of triacylglycerols.
Cells were plated in 6-well dishes, and grown to confluency. When cells reached confluency, cells were differentiated with DMEM plus 10% fetal calf serum (FCS), 10 ug/mL insulin, 390 ng/mL dexamethasone and 112 ug/mL isobutylmethylxanthine for 2 days. After 2 days of differentiation, media was changed to maintenance media DMEM plus 10%. FCS and […] insulin. On the day of the assay (day 9 post-differentiation), cells were washed once with PBS, and serum starved by adding 2 mL of DMEM plus 2 mg/ml BSA for 3 hours. During serum starvation, recombinant rat ephrin-A5/Fc chimeric ligand was preclustered. […] The assay was read at 500-550 nm.

[4] = target: T2, EPHA3 on differentiated 3T3-L1 cells (mouse); experiment: cell-based or functional assay

| Molecule | IC50 (EPHA3) [nM] | further results |
| --- | --- | --- |
| COc1cc2ncnc(Nc3ccc(Cl)c(Cl)c3)c2cc1OC [sqnm-1] | 2000 |  |
| COc1cc2ncnc(Nc3cccc(Cl)c3)c2cc1OC [sqnm-4] | 4500 |  |
| COc1cc2ncnc(Nc3ccc(Cl)cc3F)c2cc1OC [sqnm-5] | 500 |  |
| COc1cc2c(Nc3ccc(Cl)cc3F)ncnc2cc1OCC1CCN(C)CC1 [sqnm-7] | 900 |  |
| COc1cc2c(Nc3cc(Cl)ccc3F)ncnc2cc1OCC1CCN(C)CC1 [sqnm-8] | 2000 |  |
| COc1cc2c(Nc3ccc(Cl)c(Cl)c3)ncnc2cc1OCC1CN(C2CCCC2)CCO1 (stereo not drawn) [sqnm-9] | 200 |  |
| insulin: porcine insulin used to stimulate differentiated 3T3-L1 cells |  | increase in uptake of radioactive glucose (Differentiated 3T3-L1 [1]): 22 fold; resistin mRNA levels [2]: decrease; increase in TG stores (Differentiated 3T3-L1 [3]): about 23% |
| recombinant rat ephrin-A5/Fc chimeric ligand, preclustered with anti-human IgG, Fc γ fragment specific antibody (Fc fusion, part only; not given: Fc part, UniProt P97605 21-203, looked up, part only) chain, part: QDPGSKVVADRYAVYWNSSNPRFQRGDYHIDVCINDYLDVFCPHYEDSVPEDKTERYVLYMVNFDGYSACDHTSKGFKRWECNRPHSPNGPLKFSEKFQLFTPFSLGFEFRPGREYFYISSAIPDNGRRSCLKLKVFVRPTNSCMKTIGVRDRVFDVNDKVENSLEPADDTVHESAEPSRGEN |  | insulin-mediated triacylglycerol (TG) stores, differentiated 3T3-L1, 10 min pretreatment with ephrin-A5 [4]: 10 % decrease; uptake of radioactive glucose, insulin-treated differentiated 3T3-L1, 10 min pretreatment with pre-clustered ephrin-A5 [4]: 20 % decrease; uptake of radioactive glucose, insulin-treated differentiated 3T3-L1, 90 min preincubation with pre-clustered ephrin-A5 [4]: 15 % decrease |

Continued, in another order:

| IC50 (EPHA3) [nM] | Molecule | further results |
| --- | --- | --- |
| 300 | COc1cc2c(Nc3ccc(Cl)cc3F)ncnc2cc1OCC1CN(C2CCCC2)CCO1 (stereo not drawn) [sqnm-10] |  |
| 400 | COc1cc2c(Nc3ccc(Cl)c(Cl)c3)ncnc2cc1OCC1CN(C)CCO1 (stereo not drawn) [sqnm-11] |  |
| 200 | COc1cc2c(Nc3ccc(Cl)c(Br)c3)ncnc2cc1OCC1CN(C)CCO1 (stereo not drawn) [sqnm-12] |  |
| 200 | COc1cc2c(Nc3ccc(Cl)cc3F)ncnc2cc1OCC1CN(C)CCO1 (stereo not drawn) [sqnm-14] |  |
| 800 | COc1cc2c(Nc3ccc(Cl)cc3F)ncnc2cc1OCC1CN(C(C)C)CCO1 (stereo not drawn) [sqnm-15] |  |
| 11000 | Oc1cccc(Nc2ncnc3ccccc23)c1 [sqnm-16] |  |
